These results are taken from PubChem BioAssay (NCI).

Each structure is given as a SMILES string. “And” between values parts separate entries of the source, which are not always exact repeats. Equal values may be shown once.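 How tested: cells in 96-well plates exposed to compound for 48 hours at five concentrations. GI50: concentration for 50% inhibition of growth. TGI: total growth inhibition.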

Among the test systems are SW-620 colon; NCI/ADR-RES ovarian; ACHN renal; M14 melanoma; SN12C renal; CAKI-1 renal; UO-31 renal; MOLT-4 leukemia; SF-268 CNS; NCI-H460 lung; U251 CNS.
Holding throughout (test): inhibition of tumour cell growth, NCI panel, 48 h

As for `CC1CN=C(c2ccc3c(c2)Cc2cc(C4=NCC(C)N4)ccc2-3)N1` (stereo not given), the TGI in the assay on SW-620 colon, in the assay with NCI/ADR-RES ovarian, in the assay on ACHN renal, with M14 melanoma, in the assay on SN12C renal and with CAKI-1 renal was above 100 µM throughout. Moreover, the TGI was above 100 µM in the assay on UO-31 renal; above 100 µM in the assay on MOLT-4 leukemia; 77.7 µM with SF-268 CNS; 86.8 µM with NCI-H460 lung; 46.7 µM with U251 CNS.
In the case of `CS(=O)(=O)c1nc(-c2cc3c(c(S(C)(=O)=O)n2)CCC3)cc2c1CCC2`, the TGI in the assay with SW-620 colon, in the assay on NCI/ADR-RES ovarian, with ACHN renal, in the assay with M14 melanoma, in the assay with SN12C renal and with CAKI-1 renal was above 100 µM throughout. Further, the TGI in the assay on UO-31 renal, in the assay with MOLT-4 leukemia, in the assay with SF-268 CNS, in the assay with NCI-H460 lung and with U251 CNS was above 100 µM each time.
Consider `O=C(OCc1ccccc1[N+](=O)[O-])N1c2ccccc2[C@@]23O[C@]24CCC[C@H]3C#C/C=C\C#C[C@H]14`, for which the TGI in the assay with SW-620 colon is above 100 µM; with NCI/ADR-RES ovarian, above 100 µM; with ACHN renal, above 100 µM; with M14 melanoma, above 100 µM; in the assay on SN12C renal, 68.2 µM; with CAKI-1 renal, above 100 µM. The TGI is above 100 µM in the assay on UO-31 renal; 8.11 µM in the assay with MOLT-4 leukemia; above 100 µM in the assay on SF-268 CNS; above 100 µM with NCI-H460 lung; above 100 µM in the assay with U251 CNS.
Regarding `Oc1cccc(-c2cc(=S)ss2)c1`, the TGI came to 44.3 µM with SW-620 colon; 53.7 µM in the assay with NCI/ADR-RES ovarian; 30.1 µM in the assay on ACHN renal; 37.7 µM in the assay on M14 melanoma; 36.5 µM with SN12C renal; 45.7 µM in the assay with CAKI-1 renal. The TGI with UO-31 renal was 28.5 µM; with MOLT-4 leukemia, above 100 µM; with SF-268 CNS, 32.6 µM; in the assay on NCI-H460 lung it was 32.8 µM; with U251 CNS, 28.5 µM.
With `Nc1nc(-c2ccccc2)cc(-c2ccc(F)cc2)c1-c1ccc(Cl)cc1`, the TGI with SW-620 colon, in the assay on NCI/ADR-RES ovarian, in the assay on ACHN renal, in the assay with M14 melanoma, with SN12C renal and in the assay with CAKI-1 renal was above 100 µM in each case. Also, the TGI with UO-31 renal, in the assay with MOLT-4 leukemia, in the assay on SF-268 CNS, in the assay with NCI-H460 lung and with U251 CNS was above 100 µM throughout.
`Cc1cc(S(=O)(=O)Nc2nc(N)n(-c3ccccc3)n2)c(S)cc1Cl`: the TGI with SW-620 colon, in the assay with NCI/ADR-RES ovarian, with ACHN renal, in the assay on M14 melanoma, with SN12C renal and in the assay on CAKI-1 renal was above 100 µM throughout. Besides, the TGI in the assay with UO-31 renal, in the assay with MOLT-4 leukemia, in the assay with SF-268 CNS, in the assay with NCI-H460 lung and in the assay with U251 CNS was above 100 µM each time.
As for `NCCCCN(CCCN)C(=O)OCc1ccccc1`, the TGI in the assay on SW-620 colon, with NCI/ADR-RES ovarian, with ACHN renal, in the assay on M14 melanoma, in the assay with SN12C renal and with CAKI-1 renal was above 100 µM each time. The TGI in the assay on UO-31 renal, in the assay with MOLT-4 leukemia, with SF-268 CNS, in the assay with NCI-H460 lung and with U251 CNS was above 100 µM in each case.
With `O=C(O)CC(Cc1ccccc1)C(=O)O` (stereo not given), the TGI in the assay on SW-620 colon, in the assay on NCI/ADR-RES ovarian, with ACHN renal, with M14 melanoma, in the assay with SN12C renal and in the assay with CAKI-1 renal was above 100 µM each time. Moreover, the TGI in the assay on UO-31 renal, in the assay on MOLT-4 leukemia, in the assay on SF-268 CNS, in the assay with NCI-H460 lung and in the assay with U251 CNS was above 100 µM each time.
Regarding `COC(=O)c1ccc2c(c1)CCN2C(=O)c1cc2c(cc1Br)OCO2`, the TGI in the assay with SW-620 colon is 50 µM and > 100 µM; with NCI/ADR-RES ovarian, 4.79 µM and 0.693 µM; in the assay with ACHN renal, 49.3 µM and > 100 µM; in the assay with M14 melanoma, 6.9 µM and 40.4 µM; with SN12C renal, 48.3 µM and > 100 µM; in the assay with CAKI-1 renal it was 50 µM and > 100 µM. The TGI was 24.8 µM and 72.1 µM with UO-31 renal; 12.1 µM and > 100 µM in the assay on MOLT-4 leukemia; 50 µM with SF-268 CNS; 50 µM in the assay with NCI-H460 lung; 5.12 µM and 20.6 µM in the assay on U251 CNS. In addition, the GI50 was 0.262 µM in the assay with NCI/ADR-RES ovarian; 6.56 µM with ACHN renal; 0.652 µM in the assay on M14 melanoma; 3.21 µM in the assay with SN12C renal; 0.953 µM with CAKI-1 renal; 0.817 µM in the assay with UO-31 renal. Besides, the figures for the GI50 with MOLT-4 leukemia and with U251 CNS were 0.896 µM and 0.512 µM, respectively.
As for `CCNc1nc2ccccc2nc1NCC`, the TGI in the assay with SW-620 colon, with NCI/ADR-RES ovarian, in the assay on ACHN renal, with M14 melanoma, in the assay on SN12C renal and with CAKI-1 renal was above 100 µM each time. Also, the TGI in the assay on UO-31 renal, in the assay with MOLT-4 leukemia, with SF-268 CNS, in the assay with NCI-H460 lung and with U251 CNS was above 100 µM each time.
For `O=c1[nH]/c(=C/c2cccs2)c(=O)[nH]/c1=C/c1ccc(OCc2ccccc2)cn1`, the TGI with SW-620 colon is above 100 µM; with NCI/ADR-RES ovarian, 0.475 µM; in the assay on ACHN renal, above 100 µM; in the assay with M14 melanoma it was 0.0381 µM; with SN12C renal, above 100 µM; with CAKI-1 renal, 8.35 µM. Moreover, the TGI is above 100 µM with UO-31 renal; above 35.8 µM in the assay on MOLT-4 leukemia; above 36.3 µM with SF-268 CNS; 3.46 µM with NCI-H460 lung; 23.8 µM with U251 CNS.
As for `Brc1ccc2c(c1)[C@H]1CCc3c([nH]c4ccccc34)[C@H]1N2`, the TGI amounted to 27.4 µM in the assay on SW-620 colon; 29.6 µM with NCI/ADR-RES ovarian; 25 µM with ACHN renal; 29.9 µM in the assay on M14 melanoma; 27.2 µM in the assay with SN12C renal; 21.8 µM in the assay on CAKI-1 renal. Moreover, the TGI is 26.9 µM in the assay on UO-31 renal; 16.8 µM with MOLT-4 leukemia; 32.4 µM with SF-268 CNS; 24.8 µM in the assay on NCI-H460 lung; 21.7 µM in the assay with U251 CNS.
Regarding `CCCCc1ccc(Nc2nc(N)c3[nH]cnc3n2)cc1`, the TGI in the assay on SW-620 colon came out at 63.6 µM; with NCI/ADR-RES ovarian it was 37.2 µM; in the assay with ACHN renal it was 35.5 µM; in the assay with M14 melanoma, 88 µM; in the assay on SN12C renal, 31.1 µM; in the assay on CAKI-1 renal, 37.7 µM. For the same compound, the TGI is 27.1 µM in the assay with UO-31 renal; 40.2 µM in the assay with MOLT-4 leukemia; 32.8 µM in the assay with SF-268 CNS; 52.2 µM in the assay with NCI-H460 lung; 48 µM in the assay on U251 CNS.
`COc1ccc(NC(=O)c2cc(NC(=O)/C=C/c3ccccc3)c(OC)c(OC)c2)cc1`: the TGI in the assay on SW-620 colon, in the assay on NCI/ADR-RES ovarian, in the assay on ACHN renal, in the assay with M14 melanoma, in the assay on SN12C renal and in the assay on CAKI-1 renal was above 100 µM each time. In addition, the TGI in the assay with UO-31 renal is 5.62 µM; in the assay on MOLT-4 leukemia, above 100 µM; in the assay with SF-268 CNS it was above 100 µM; in the assay with NCI-H460 lung it was above 100 µM; with U251 CNS it was above 100 µM.
Consider `CC(CCC(=O)O)(c1cc(Br)c(O)c(Br)c1)c1cc(Br)c(O)c(Br)c1`, for which the TGI in the assay with SW-620 colon, with NCI/ADR-RES ovarian, in the assay on ACHN renal, with M14 melanoma, in the assay with SN12C renal and in the assay on CAKI-1 renal was above 100 µM each time. The TGI with UO-31 renal, in the assay with MOLT-4 leukemia, in the assay with SF-268 CNS, in the assay with NCI-H460 lung and in the assay on U251 CNS was above 100 µM throughout.
On to `O=C1N2CCN=C2c2ccccc2C1(O)c1ccccc1` (stereo not given), for which the TGI in the assay on SW-620 colon, in the assay with NCI/ADR-RES ovarian, in the assay with ACHN renal, in the assay on M14 melanoma, in the assay with SN12C renal and in the assay on CAKI-1 renal was above 100 µM in each case. The TGI in the assay with UO-31 renal, in the assay with MOLT-4 leukemia, with SF-268 CNS, in the assay on NCI-H460 lung and with U251 CNS was above 100 µM in each case.
As for `COc1cc2[nH]c(=O)[nH]c2c2c(C)c[nH]c12`, the TGI with SW-620 colon, in the assay with NCI/ADR-RES ovarian, with ACHN renal, with M14 melanoma, in the assay with SN12C renal and in the assay on CAKI-1 renal was above 100 µM in each case. Also, the TGI in the assay with UO-31 renal, in the assay with MOLT-4 leukemia, in the assay on SF-268 CNS, with NCI-H460 lung and in the assay on U251 CNS was above 100 µM in each case.
